Patent publication US20040209956A1 (priority 2003, published 2004)
Each block holds one compound with its values, some of them ahead of it.

Columns and labels:
Assay type in all cases: physicochemical
[1] = Solubility and solid form in DMF/water/acetonitrile ternary solvent system; conditions: one molar equivalent excess maleic acid
Protocol: The final set of solubility studies were conducted in ternary solvent systems of dimethyl formamide (DMF)/water/acetonitrile (ACN). This system was studied because most of the early success in crystallizing S-[2-[(1-Iminoethyl)amino]ethyl]-2-methyl-L-cysteine maleate salt was found in this solvent mixture. […] Experiments were only conducted for the last four of these compositions at 25° C., but the data was collected for the compositions at 5° C. Supernatant was analyzed after four and nineteen days. Equilibrated solids were also isolated and characterized after nineteen days from most experiments (see Table 5). […] Table 5, lists concentration data in wt % S-[2-[(1-Iminoethyl)amino]ethyl]-2-methyl-L-cysteine from all the experiments at 5 and 25° C. after four and nineteen days of equilibration. […] There is also some temperature dependence for solubility across all the experiments. When the data is analyzed at a fixed ACN content, it seems that the solubility initially decreases before increasing as the DMF content of the system is increased at the expense of water. This trend seems to hold for both 70 and 90% ACN. […] In summary, though this solvent system is complex, it does offer regions of solvent composition conducive to crystallization process design especially for form II.

physchem = test: physchem
Excerpt: The parent S-[2-[(1-Iminoethyl)amino]ethyl]-2-methyl-L-cysteine molecule has 3 ionizable groups and can exist in 4 ionization states.
At low pH, the molecule exists as a +2 charged free acid, with the carboxylic acid, amine and amidine moieties protonated. This is the ionization state for the dihydrochloride salt.
As the pH is increased, the carboxylic acid group is the first group to deprotonate, and this produces a net charge on the molecule of +1. If the pH increase is generated by addition of sodium hydroxide to S-[2-[(1-Iminoethyl)amino]ethyl]-2-methyl-L-cysteine, the […] is formed. Other bases would make their corresponding salt forms. If the increase in pH is due to removal of chloride ions by anion exchange processing, the product is the monohydrochloride salt with no sodium or other counterions.
A positive charge still resides on the amidine, and a negative charge still resides on the carboxyl group. In contrast, if such material is made by the addition of sodium hydroxide to the dihydrochloride, the resulting product is the monohydrochloro sodium salt, mixed with one equivalent of sodium chloride. The material prepared by the anion exchange resin approach is the free zwitterion.
Further increases in pH lead to deprotonation of the amidine ion (pKa˜12.5). The molecule in this pH range is the free base and acid salt. […]

[2] = Pseudo-titration in water with IRA-400(OH) anion exchange resin, samples assayed by HPLC (Example 3); conditions: for pH of slower rise representative of the pK: pseudo-titration in water, not true equilibrium
Protocol: 60 g of Amberlite IRA400 (OH) resin was prewashed with 4.7 percent (by weight) ammonium hydroxide (50 ml of 28 percent ammonium hydroxide, 250 ml deionized water), followed by extensive washing with deionized water. The final conductivity was 6.1 μS.
Samples containing about 0.9 g of S-[2-[(1-Iminoethyl)amino]ethyl]-2-methyl-L-cysteine di-hydrochloride in 142 ml HCl/water solution, were concentrated on a rotary evaporator at 60° C. to an oil. To the oil, diluted to 60 ml with deionized water, was added aliquots of 0.5 g of washed anion exchange resin while stirring. At five minutes after each aliquot of resin was added, the solution pH was measured and a sample removed through a syringe filter. A total of 9 g of anion exchange resin was added. The final pH was 10.8. The resin was removed by filtration and the filtrate was concentrated to an oil by rotary evaporation at 60° C.; no solids formed. The starting material, final filtrate and all intermediate samples were assayed by HPLC and ion chromatography for chloride.
The diamond (solid line) is pH and square (dashed line) is S-[2-[(1-Iminoethyl)amino]ethyl]-2-methyl-L-cysteine (percent initial, by ion chromatography). […] The diamond (solid line) is pH and triangle (broken line) is chloride (by ion chromatography).
These curves are not true titration curves since samples were withdrawn during the progress of the reaction, and since true equilibrium was not attained before the increments of resin were added. Nevertheless, the graphs of FIG. 2 and FIG. 3 illustrate the expected trends. As resin is added to the S-[2-[(1-Iminoethyl)amino]ethyl]-2-methyl-L-cysteine solution the pH rises with change in slope around pH's of 2, 9 and 11. The pH's of slower rise are representative of the pK's of the carboxylic acid, amine and amidine functional groups, respectively. Above a pH of 10, the S-[2-[(1-Iminoethyl)amino]ethyl]-2-methyl-L-cysteine concentration in solution decreases. At this point, the S-[2-[(1-Iminoethyl)amino]ethyl]-2-methyl-L-cysteine is gaining a net negative charge and is binding to the resin. […] The final chloride content is approximately 0.04 mol equivalents.

[3] = Stability of free zwitterion at different pH by ion pairing gradient HPLC (Example 6); conditions: for Purity At The Time Of Titration: a few hours after preparation; for Purity One Week After Titration: after 1 week
Protocol: Amberlite IRA400 (Cl) resin was rinsed with 3M HCl, water, and then 3M NaOH. Aliquots were 100 ml per 10 g of resin. This procedure was repeated 3 times in order to clean the resin and in order to generate the OH form. A final rinse with water was carried out until the conductivity of the eluting water was 2 μS. The resin was then used to titrate 40 ml of a 50 mg/ml solution of S-[2-[(1-Iminoethyl)amino]ethyl]-2-methyl-L-cysteine di-hydrochloride. The concentration is expressed in terms of zwitterion equivalents. Aliquots were taken throughout the titration, filtered and analyzed by HPLC. Subsamples of the aliquots were saved for a second HPLC analysis 1 week after the titration was performed in order to assess the stability of the samples. Additional aliquots were taken for Cl analysis using an ion selective electrode. The pH was also monitored throughout the titration.
HPLC analyses were performed using an ion pairing gradient method.
Pump A: 20 mM KH2PO4, 10 mM Pentane sulfonic acid, adjusted to pH=3 with phosphoric acid
Gradient: 0% B at 0 min, 26% B at 15 min, 0% B at 15.1 min

[4] = HPLC stability of anion exchange titrated samples (Example 5); conditions: product at pH of 11 within a few hours
Protocol: 3.3 g of a sample containing about 1 g of S-[2-[(1-Iminoethyl)amino]ethyl]-2-methyl-L-cysteine di-hydrochloride was diluted to 20 g. Aliquots of prewashed Amberlite IRA400 (OH) resin was added to the solution and samples were periodically withdrawn through a syringe filter. Intermediate resin filtrations were performed at pH of 7.1 and 8.8 by filtering off the resin in solution and then continuing to add fresh resin to the filtrate. This was done to drive the chloride removal equilibrium and minimize product adsorption. After the final pH of 11.2 was attained, the resin was filtered off. The starting materials, intermediate samples and final filtrate were analyzed.
The resulting samples were analyzed by HPLC. No difference was seen between the HPLC traces of the starting material and product at pH of 11 within a few hours.

[5] = Moisture sorption of Form I; conditions: 90% R.H. and 25° C.
Excerpt: FIG. 12 is a plot of a moisture sorption study of S-[2-[(1-Iminoethyl)amino]ethyl]-2-methyl-L-cysteine maleate.

- Solubility in DMF/water/acetonitrile ([1]; 5/5/90 D/W/A, 5° C., 4 Days): 1.15 Wt %
- Solubility in DMF/water/acetonitrile ([1]; 5/5/90 D/W/A, 5° C., 19 Days): 1.16 Wt %
- Solubility in DMF/water/acetonitrile ([1]; 6.3/3.4/90 D/W/A, 5° C., 4 Days): 1.35 Wt %
- Solubility in DMF/water/acetonitrile ([1]; 6.3/3.4/90 D/W/A, 5° C., 19 Days): 1.02 Wt %
- Solubility in DMF/water/acetonitrile ([1]; 6.3/3.4/90 D/W/A, 25° C., 4 Days): 2.13 Wt %
- Solubility in DMF/water/acetonitrile ([1]; 6.3/3.4/90 D/W/A, 25° C., 19 Days): 1.74 Wt %
- Solubility in DMF/water/acetonitrile ([1]; 7.5/2.5/90 D/W/A, 5° C., 4 Days): 4.19 Wt %
- Solubility in DMF/water/acetonitrile ([1]; 7.5/2.5/90 D/W/A, 5° C., 19 Days): 2.12 Wt %
- Solubility in DMF/water/acetonitrile ([1]; 7.5/2.5/90 D/W/A, 25° C., 4 Days): 2.53 Wt %
- Solubility in DMF/water/acetonitrile ([1]; 7.5/2.5/90 D/W/A, 25° C., 19 Days): 2.45 Wt %
- Solubility in DMF/water/acetonitrile ([1]; 15/15/70 D/W/A, 5° C., 4 Days): 3.31 Wt %
- Solubility in DMF/water/acetonitrile ([1]; 15/15/70 D/W/A, 5° C., 19 Days): 5.71 Wt %
- Solubility in DMF/water/acetonitrile ([1]; 20/10/70 D/W/A, 5° C., 4 Days): 2.91 Wt %
- Solubility in DMF/water/acetonitrile ([1]; 20/10/70 D/W/A, 5° C., 19 Days): 1.75 Wt %
- Solubility in DMF/water/acetonitrile ([1]; 20/10/70 D/W/A, 25° C., 4 Days): 3.46 Wt %
- Solubility in DMF/water/acetonitrile ([1]; 20/10/70 D/W/A, 25° C., 19 Days): 2.33 Wt %
- Solubility in DMF/water/acetonitrile ([1]; 22.5/7.5/70 D/W/A, 5° C., 4 Days): 3.06 Wt %
- Solubility in DMF/water/acetonitrile ([1]; 22.5/7.5/70 D/W/A, 5° C., 19 Days): 2.75 Wt %
- Solubility in DMF/water/acetonitrile ([1]; 22.5/7.5/70 D/W/A, 25° C., 4 Days): 4.90 Wt %
- Solubility in DMF/water/acetonitrile ([1]; 22.5/7.5/70 D/W/A, 25° C., 19 Days): 7.38 Wt %
Compound: CC(=N)NCCSC[C@](C)(N)C(=O)O.O=C(O)/C=C\C(=O)O [S-[2-[(1-Iminoethyl)amino]ethyl]-2-methyl-L-cysteine maleate]

- pKa (physchem): ~8.4
- pH of slower rise representative of the pK ([2]; amidine group): ~11
- pH of slower rise representative of the pK ([2]; amine group): ~9
- pH of slower rise representative of the pK ([2]; carboxylic acid group): ~2
- Degradation by HPLC assay of the samples ([2]; samples titrated up to final pH 10.8, Example 3): no degradation
- Purity At The Time Of Titration ([3]; Sample pH 2.13): 98.6 Peak Area %
- Purity One Week After Titration ([3]; Sample pH 2.13): 98.4 Peak Area %
- Purity At The Time Of Titration ([3]; Sample pH 3.83): 98.7 Peak Area %
- Purity One Week After Titration ([3]; Sample pH 3.83): 98.1 Peak Area %
- Purity At The Time Of Titration ([3]; Sample pH 8.48): 98.5 Peak Area %
- Purity One Week After Titration ([3]; Sample pH 8.48): 97.4 Peak Area %
- Purity At The Time Of Titration ([3]; Sample pH 9.37): 98.5 Peak Area %
- Purity One Week After Titration ([3]; Sample pH 9.37): 97.2 Peak Area %
- Purity At The Time Of Titration ([3]; Sample pH 9.78): 98.3 Peak Area %
- Purity One Week After Titration ([3]; Sample pH 9.78): 97.2 Peak Area %
- Purity At The Time Of Titration ([3]; Sample pH 10.27): 98.3 Peak Area %
- Purity One Week After Titration ([3]; Sample pH 10.27): 96.4 Peak Area %
- Purity At The Time Of Titration ([3]; Sample pH 10.83): 96.6 Peak Area %
- Purity One Week After Titration ([3]; Sample pH 10.83): 94.7 Peak Area %
- Purity At The Time Of Titration ([3]; Sample pH 11.6): 98.3 Peak Area %
- Purity One Week After Titration ([3]; Sample pH 11.6): 92.4 Peak Area %
- Purity At The Time Of Titration ([3]; Sample pH 11.75): 97.9 Peak Area %
- Purity One Week After Titration ([3]; Sample pH 11.75): 89.2 Peak Area %
- Purity At The Time Of Titration ([3]; Sample pH .94): 98.0 Peak Area %
- Purity One Week After Titration ([3]; Sample pH .94): 98.3 Peak Area %
- Difference between HPLC traces of starting material and product [4]: No difference
Compound: CC(=N)NCCSC[C@](C)(N)C(=O)O [S-[2-[(1-Iminoethyl)amino]ethyl]-2-methyl-L-cysteine]

- Water absorbed by weight [5]: less than one percent
Compound: S-[2-[(1-Iminoethyl)amino]ethyl]-2-methyl-L-cysteine maleate crystalline salt Form I
